Measurements: patent US5723475A, “Arylpiperidine and arylpiperazine derivatives and medicament containing the same” (Suntory Limited, priority 1995, dated 1998)

Columns and labels:
[1] = tested on: Sodium Channel; assay: Veratridine-induced Sodium Channel Activity Inhibitory Effect (suppression of veratridine-induced depolarization in synaptosomes, Rhodamine 6G); type: biochemical, Wistar rats; conditions: compound 0.1 μM; rat brain synaptosomes
Method: Veratridine-induced Sodium Channel Activity Inhibitory Effect
The membrane potential of the synaptosomes prepared from the brain membrane of Wistar rats (male, 10 to 12 weeks old) was measured by the method of Aiuchi et al. [T. Aiuchi et al: Biochimi. Biophys. Acta.

[2] = tested on: T-type Ca^2+ channel; assay: T-Type Calcium Channel Inhibitory Effect (whole-cell patch clamp, hippocampal CA1 pyramidal cells); type: cell-based, Wistar rats; conditions: suppression of peak current after one minute of application; rat hippocampal CA1 pyramidal cells; read-out: T-type Ca^Z+ channel inhibitory effect IC50
Method: T-Type Calcium Channel Inhibitory Effect
The hippocampal CA1 pyramidal cells were isolated from Wistar rats (male/female, 1 week old) in accordance with the method of Takahashi et al. [K. Takahashi et al.; J. Pharmacol. Exp. Ther., 256, 169 (1991)] and the T-type calcium current under conditions of a fixed membrane potential was measured using the whole-cell configuration of the pach clamp technique. The effects of the compounds were evaluated from the rate of suppression of the peak current after one minute of application using the concentration clamp method.

[3] = biological target: T1, Dopamine D2 receptor (Rattus norvegicus, UniProt P61169); assay: Dopamine D2 Receptor Blocking Effect ([3H] raclopride binding, striatum membrane fraction); parameters: species or system Wister male rats; conditions: 1.0 nM [3H] raclopride, 25° C., one hour
T1 construct: membrane fraction prepared from the striatum of Wister male rats; from tissue; host or cells: striatum of male Wistar rats (6 weeks old), membrane fraction
Method: Dopamine D2 Receptor Blocking Effect
57 μl of the membrane fraction prepared from the striatum of Wister male rats (6 weeks old) was incubated in a buffer at 25° C. for one hour along with the compound and 1.0 nM [^3 H) raclopride. A GF/C glass filter (0.1% polyethylene imine treatment) was used for separation of B/F, then the radioactivity was measured by a beta plate and the effect of the compound was evaluated.

[4] = acute toxicity, death rate up to 24 hours after intravenous injection; conditions: mouse, in vivo, ddY mice (male, 6 weeks old), read-out: 50% lethal dosage LD50 of acute toxicity
Excerpt: The compounds of the present invention are low in toxicity.

[5] = tested on: dopamine D2 receptors; conditions: due to its action of blocking dopamine D2 receptors; cited from earlier work

T1 sequence (P61169 whole entry): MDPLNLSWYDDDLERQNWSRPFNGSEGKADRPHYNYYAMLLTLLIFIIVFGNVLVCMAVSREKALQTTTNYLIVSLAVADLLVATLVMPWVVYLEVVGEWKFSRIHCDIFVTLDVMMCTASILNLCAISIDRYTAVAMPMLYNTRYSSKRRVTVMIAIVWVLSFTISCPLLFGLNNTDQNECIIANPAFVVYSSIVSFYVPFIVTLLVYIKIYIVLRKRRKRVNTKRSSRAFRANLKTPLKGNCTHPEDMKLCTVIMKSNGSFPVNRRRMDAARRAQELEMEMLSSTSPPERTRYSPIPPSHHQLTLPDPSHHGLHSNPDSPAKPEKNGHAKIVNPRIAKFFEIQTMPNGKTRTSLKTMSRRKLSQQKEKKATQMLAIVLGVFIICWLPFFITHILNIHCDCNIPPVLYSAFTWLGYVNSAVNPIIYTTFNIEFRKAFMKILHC

SMILES	Anti-veratridine effect (inhibiting rate %) [1] [%]	also measured
O=C(CN1CCC(c2ccc(Oc3ccccc3)cc2)CC1)N[C@@H]1C[C@H]1c1ccccc1 (relative stereo) [Compound 56, N-(trans-2-phenyl-1-cyclopropyl)-4-(4-phenoxyphenyl)-1-piperidinacetamide]	38.4	–
O=C(CN1CCC(c2ccc(Cc3ccc(F)cc3)cc2)CC1)N[C@@H]1C[C@H]1c1ccccc1 (relative stereo) [Compound 57, N-(trans-2-phenyl-1-cyclopropyl)-4-[4-(4-fluorophenyl)methylphenyl]-1-piperidinacetamide]	32.8	IC50 [2]: 1500 nM
O=C(CCCN1CC=C(c2ccc(Oc3ccccc3)cc2)CC1)NC1CCCOc2ccccc21 (stereo not drawn) [Compound 29, 5-[4-(4-(4-phenoxyphenyl)-1,2,3,6-tetrahydropyridine-1-yl)butyrylamino]-2,3,4,5-tetrahydro-1-benzoxepine]	27.9	–
O=C(CCCN1CCC(c2ccc(Oc3ccccc3)cc2)CC1)NC1CCCOc2ccccc21 (stereo not drawn) [Compound 30, 5-[4-(4-(4-phenoxyphenyl)piperidin-1-yl)butyrylamino]-2,3,4,5-5 tetrahydro-1-benzoxepine]	21.4	–
O=C(CCCN1CC=C(c2ccc(Oc3ccccc3)cc2)CC1)Nc1ccccc1Cc1ccccc1 [Compound 32, 2-benzyl-1-[4-(4-(4-phenoxyphenyl)-1,2,3,6-tetrahydropyridin-1-yl)butyrylamino]benzene]	35.7	IC50 [3]: > 1000 nM
O=C(CCCN1CCC(c2ccc(Oc3ccccc3)cc2)CC1)Nc1ccccc1Cc1ccccc1 [Compound 33, 2-benzyl-1-[4-(4-(4-phenoxyphenyl)piperidin-1-yl)butyrylamino]benzene]	37.5	–
O=C(CCCN1CCN(c2ccc(Cc3ccc(F)cc3)cc2)CC1)Nc1ccccc1Cc1ccccc1 [Compound 34, 2-benzyl-1-[4-(4-(4-(4-fluorophenyl)methylphenyl)piperazin-1-yl)butyrylamino]benzene]	50.2	IC50 [3]: 7000 nM; IC50 [2]: 10000 nM
O=C(CCCN1CCC(c2ccc(Cc3ccc(F)cc3)cc2)CC1)Nc1ccccc1Cc1ccccc1 [Compound 35, 2-benzyl-1-[4-(4-(4-(4-fluorophenyl)methylphenyl)piperidin-1-yl)butyrylamino]benzene]	40.6	–
O=C(CCCCCN1CC=C(c2ccc(Oc3ccccc3)cc2)CC1)Nc1ccccc1Cc1ccccc1 [Compound 36, 2-benzyl-1-[6-(4-(4-phenoxyphenyl)-1,2,3,6-tetrahydropyridine-1-yl)hexanoylamino]benzene]	55.1	IC50 [3]: > 1000 nM
O=C(CCCCCN1CCC(c2ccc(Oc3ccccc3)cc2)CC1)Nc1ccccc1Cc1ccccc1 [Compound 37, 2-benzyl-1-[6-(4-(4-phenoxyphenyl)piperidin-1-yl)hexanoylamino]benzene]	62	IC50 [3]: > 1000 nM
O=C(CCCCCN1CCN(c2ccc(Cc3ccc(F)cc3)cc2)CC1)Nc1ccccc1Cc1ccccc1 [Compound 38, 2-benzyl-1-[6-(4-(4-(4-fluorophenyl)methylphenyl)piperazin-1-yl)hexanoylamino]benzene]	56.6	–
Cc1cccc(Cc2ccccc2)c1NC(=O)CN1CCC(c2ccc(Oc3ccccc3)cc2)CC1 [Compound 39, 2-benzyl-1-[2-(4-(4-phenoxyphenyl)piperidin-1-yl)acetylamino]-6-methylbenzene]	16.6	–
Cc1cccc(Cc2ccccc2)c1NC(=O)CCCN1CCC(c2ccc(Oc3ccccc3)cc2)CC1 [Compound 41, 2-benzyl-1-[4-(4-(4-phenoxyphenyl)piperidin-1-yl)butyrylamino]-6-methylbenzene]	30.4	–
Cc1cccc(Cc2ccccc2)c1NC(=O)CCCN1CCN(c2ccc(Cc3ccc(F)cc3)cc2)CC1 [Compound 42, 2-benzyl-1-[4-(4-(4-(4-fluorophenyl)methylphenyl)piperazin-1-yl)butyrylamino]-6-methylbenzene]	16.6	–
Cc1cccc(C)c1NC(=O)CCCN1CCC(c2ccc(Oc3ccccc3)cc2)CC1 [Compound 47, 2,6-dimethyl-1-[4-(4-(4-phenoxyphenyl)piperidin-1-yl)butyrylamino]benzene]	17.3	–
Cc1cc(C)c(NC(=O)CCCN2CCC(c3ccc(Cc4ccc(F)cc4)cc3)CC2)c(C)c1 [Compound 49, 2,4,6-trimethyl-1-[4-(4-(4-(4-fluorophenyl)methylphenyl)piperidine-1-yl)butyrylamino]benzene]	17	–
O=C(CCCN1CCN(c2ccc(Cc3ccc(F)cc3)cc2)CC1)N1CCCOc2ccccc21 [Compound 53, 5-[4-(4-(4-(4-fluorophenyl)methylphenyl)piperazin-1-yl)butyryl]-2,3,4,5-tetrahydro-1,5-benzoxazepine]	33.8	IC50 [3]: 1260 nM; IC50 [2]: 2800 nM; LD50 at 24 h [4]: 46.5 mg/kg
O=C(CCCN1CCC(c2ccc(Cc3ccc(F)cc3)cc2)CC1)N1CCCOc2ccccc21 [Compound 54, 5-[4-(4-(4-(4-fluorophenyl)methylphenyl)piperidin-1-yl)butyryl]-2,3,4,5-tetrahydro-1,5-benzoxazepine]	29.4	–
O=C(CN1CCC(c2ccc(Oc3ccccc3)cc2)CC1)Nc1ccccc1 [Compound 59, N-phenyl-4-(4-phenoxyphenyl)-1-piperidinacetamide]	32.9	–
O=C(CN1CCC(c2ccc(Cc3ccc(F)cc3)cc2)CC1)Nc1ccccc1 [Compound 60, N-phenyl-4-[4-(4-fluorophenyl)methylphenyl]-1-piperidinacetamide]	33.9	–
O=C(NCCN1CCC(c2ccc(Oc3ccccc3)cc2)CC1)c1ccccc1 [Compound 62, 1-(2-benzoylaminoethyl)-4-(4-phenoxyphenyl)piperidine]	36	–
O=C(NCCN1CCC(c2ccc(Oc3ccccc3)cc2)CC1)C1(c2ccccc2)CC1 [Compound 63, 1-[2-(1-phenyl-1-cyclopropylcarboxyamino)ethyl]-4-(4-phenoxyphenyl) piperidine]	36.2	–
C=C(c1ccccc1)N(C)C(=O)CN1CCC(c2ccc(Oc3ccccc3)cc2)CC1 [Compound 64, N-methyl-N-(1-phenylvinyl)-4-(4-phenoxyphenyl)-1-piperidinacetamide]	31.5	–
Fc1ccc(C(c2ccc(F)cc2)N2CCN(C/C=C/c3ccccc3)CC2)cc1 [Flunarizine]	–	side effect [5]: onset of symptoms of Parkinson's disease
